Measurements published in patent publication US20220218715A1, “NOVEL USE OF PYRROLO-PYRIDINE DERIVATIVE COMPOUND FOR PREVENTION AND/OR TREATMENT OF CANCER” (VORONOI CO., LTD., priority 2019, published 2022).

Assays:
CSNK1A1 = target: T1, CSNK1A1 (Homo sapiens, UniProt P48729); assay: scanMAX Kinase analysis panel (DiscoverX); format: binding; conditions: 1 μM in DMSO
T1 construct: purchased DiscoverX
From the text: (§1) [(Example Compound−Positive Control)/(Negative Control−Positive Control)×100]

[1] = target: T2, JAK1 (JH2domain-psudokinase) (Homo sapiens, UniProt P23458); assay: scanMAX Kinase analysis panel (DiscoverX); format: binding; conditions: 1 μM in DMSO
T2 construct: JAK1 (JH2domain-pseudokinase); purchased DiscoverX scanMAX Kinase analysis panel
T2 sequence (P23458 583-855 limits assumed): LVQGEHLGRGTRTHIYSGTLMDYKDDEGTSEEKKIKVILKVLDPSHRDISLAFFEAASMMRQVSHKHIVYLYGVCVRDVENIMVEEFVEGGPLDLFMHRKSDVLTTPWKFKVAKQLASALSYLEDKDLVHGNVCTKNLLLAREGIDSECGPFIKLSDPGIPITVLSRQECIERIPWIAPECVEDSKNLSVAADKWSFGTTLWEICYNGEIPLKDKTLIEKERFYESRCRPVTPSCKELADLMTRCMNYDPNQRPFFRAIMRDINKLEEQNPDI
From the text: as §1

JNK2 = target: T3, JNK2 (Homo sapiens, UniProt P45984); assay: scanMAX Kinase analysis panel (DiscoverX); format: binding; conditions: 1 μM in DMSO
T3 construct: purchased DiscoverX scanMAX Kinase analysis panel
T3 sequence (P45984 whole entry): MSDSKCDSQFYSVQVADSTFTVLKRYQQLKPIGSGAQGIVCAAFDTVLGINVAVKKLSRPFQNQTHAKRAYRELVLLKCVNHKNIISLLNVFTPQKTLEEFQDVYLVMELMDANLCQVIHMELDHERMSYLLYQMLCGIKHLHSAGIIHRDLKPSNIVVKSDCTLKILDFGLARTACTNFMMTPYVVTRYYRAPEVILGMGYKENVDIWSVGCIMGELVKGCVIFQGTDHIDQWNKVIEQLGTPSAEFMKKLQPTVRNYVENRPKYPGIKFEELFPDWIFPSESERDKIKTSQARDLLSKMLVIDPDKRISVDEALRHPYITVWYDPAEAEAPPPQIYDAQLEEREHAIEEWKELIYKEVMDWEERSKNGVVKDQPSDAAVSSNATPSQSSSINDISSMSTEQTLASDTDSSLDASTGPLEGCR
From the text: as §1

PAK2 = target: T4, PAK2 (Homo sapiens, UniProt Q13177); assay: scanMAX Kinase analysis panel (DiscoverX); format: binding; conditions: 1 μM in DMSO
T4 construct: purchased DiscoverX
From the text: as §1

CAMK2D = target: T5, CAMK2D (Homo sapiens, UniProt Q13557); assay: scanMAX Kinase analysis panel (DiscoverX); format: binding; conditions: 1 μM in DMSO
T5 construct: purchased DiscoverX
From the text: as §1

cSNK1D = target: T6, cSNK1D (Homo sapiens, UniProt P48730); assay: scanMAX Kinase analysis panel (DiscoverX); format: binding
T6 construct: purchased DiscoverX
T6 sequence (P48730 whole entry): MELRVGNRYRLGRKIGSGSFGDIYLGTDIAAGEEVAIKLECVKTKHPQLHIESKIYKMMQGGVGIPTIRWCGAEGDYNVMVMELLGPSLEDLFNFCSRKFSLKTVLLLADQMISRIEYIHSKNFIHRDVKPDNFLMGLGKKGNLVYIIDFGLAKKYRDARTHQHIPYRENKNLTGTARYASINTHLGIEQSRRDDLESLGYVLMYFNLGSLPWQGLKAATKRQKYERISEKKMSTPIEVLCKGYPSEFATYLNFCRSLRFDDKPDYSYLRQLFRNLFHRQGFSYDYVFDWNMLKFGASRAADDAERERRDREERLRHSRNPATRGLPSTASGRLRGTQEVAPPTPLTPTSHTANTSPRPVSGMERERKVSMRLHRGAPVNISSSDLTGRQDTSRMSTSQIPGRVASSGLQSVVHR
From the text: as §1

MAPKAPK2 = target: T7, MAPKAPK2 (Homo sapiens, UniProt P49137); assay: scanMAX Kinase analysis panel (DiscoverX); format: binding; conditions: 1 μM in DMSO
T7 construct: purchased DiscoverX scanMAX Kinase analysis panel
From the text: as §1

MYLK = target: T8, MYLK (Homo sapiens, UniProt Q15746); assay: scanMAX Kinase analysis panel (DiscoverX); format: binding; conditions: 1 μM in DMSO
T8 construct: purchased DiscoverX
From the text: as §1

LTK = target: T9, LTK (Homo sapiens, UniProt P29376); assay: scanMAX Kinase analysis panel (DiscoverX); format: binding; conditions: 1 μM in DMSO
T9 construct: purchased DiscoverX
T9 sequence (P29376 17-864): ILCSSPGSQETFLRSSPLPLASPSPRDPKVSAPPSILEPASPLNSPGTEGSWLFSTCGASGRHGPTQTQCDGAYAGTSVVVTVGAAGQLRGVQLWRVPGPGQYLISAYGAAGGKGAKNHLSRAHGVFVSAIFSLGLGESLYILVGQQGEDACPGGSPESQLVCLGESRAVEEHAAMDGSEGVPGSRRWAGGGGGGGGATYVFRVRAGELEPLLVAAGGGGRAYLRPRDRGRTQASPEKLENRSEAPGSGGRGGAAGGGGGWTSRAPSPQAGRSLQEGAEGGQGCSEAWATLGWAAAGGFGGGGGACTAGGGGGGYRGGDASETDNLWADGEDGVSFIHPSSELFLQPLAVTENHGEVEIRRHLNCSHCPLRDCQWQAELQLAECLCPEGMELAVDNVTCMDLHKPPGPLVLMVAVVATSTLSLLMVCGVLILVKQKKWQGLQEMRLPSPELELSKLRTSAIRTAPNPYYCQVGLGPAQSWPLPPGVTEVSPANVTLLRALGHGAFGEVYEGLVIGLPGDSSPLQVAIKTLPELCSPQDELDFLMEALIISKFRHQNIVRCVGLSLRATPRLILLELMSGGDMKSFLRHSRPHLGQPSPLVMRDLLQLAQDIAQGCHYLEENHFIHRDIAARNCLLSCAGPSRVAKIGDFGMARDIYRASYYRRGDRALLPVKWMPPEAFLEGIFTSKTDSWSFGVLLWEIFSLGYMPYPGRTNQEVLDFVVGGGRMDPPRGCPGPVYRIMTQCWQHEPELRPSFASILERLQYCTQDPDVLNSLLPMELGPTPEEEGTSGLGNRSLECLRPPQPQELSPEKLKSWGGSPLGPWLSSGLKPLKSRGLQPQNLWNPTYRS
From the text: as §1

ALK (L1196M) = target: T10, ALK (L1196M) (Homo sapiens, UniProt Q9UM73, L1196M); assay: scanMAX Kinase analysis panel (DiscoverX); format: binding; conditions: 1 μM in DMSO
T10 construct: purchased DiscoverX
T10 sequence (Q9UM73 19-1620 L1196M): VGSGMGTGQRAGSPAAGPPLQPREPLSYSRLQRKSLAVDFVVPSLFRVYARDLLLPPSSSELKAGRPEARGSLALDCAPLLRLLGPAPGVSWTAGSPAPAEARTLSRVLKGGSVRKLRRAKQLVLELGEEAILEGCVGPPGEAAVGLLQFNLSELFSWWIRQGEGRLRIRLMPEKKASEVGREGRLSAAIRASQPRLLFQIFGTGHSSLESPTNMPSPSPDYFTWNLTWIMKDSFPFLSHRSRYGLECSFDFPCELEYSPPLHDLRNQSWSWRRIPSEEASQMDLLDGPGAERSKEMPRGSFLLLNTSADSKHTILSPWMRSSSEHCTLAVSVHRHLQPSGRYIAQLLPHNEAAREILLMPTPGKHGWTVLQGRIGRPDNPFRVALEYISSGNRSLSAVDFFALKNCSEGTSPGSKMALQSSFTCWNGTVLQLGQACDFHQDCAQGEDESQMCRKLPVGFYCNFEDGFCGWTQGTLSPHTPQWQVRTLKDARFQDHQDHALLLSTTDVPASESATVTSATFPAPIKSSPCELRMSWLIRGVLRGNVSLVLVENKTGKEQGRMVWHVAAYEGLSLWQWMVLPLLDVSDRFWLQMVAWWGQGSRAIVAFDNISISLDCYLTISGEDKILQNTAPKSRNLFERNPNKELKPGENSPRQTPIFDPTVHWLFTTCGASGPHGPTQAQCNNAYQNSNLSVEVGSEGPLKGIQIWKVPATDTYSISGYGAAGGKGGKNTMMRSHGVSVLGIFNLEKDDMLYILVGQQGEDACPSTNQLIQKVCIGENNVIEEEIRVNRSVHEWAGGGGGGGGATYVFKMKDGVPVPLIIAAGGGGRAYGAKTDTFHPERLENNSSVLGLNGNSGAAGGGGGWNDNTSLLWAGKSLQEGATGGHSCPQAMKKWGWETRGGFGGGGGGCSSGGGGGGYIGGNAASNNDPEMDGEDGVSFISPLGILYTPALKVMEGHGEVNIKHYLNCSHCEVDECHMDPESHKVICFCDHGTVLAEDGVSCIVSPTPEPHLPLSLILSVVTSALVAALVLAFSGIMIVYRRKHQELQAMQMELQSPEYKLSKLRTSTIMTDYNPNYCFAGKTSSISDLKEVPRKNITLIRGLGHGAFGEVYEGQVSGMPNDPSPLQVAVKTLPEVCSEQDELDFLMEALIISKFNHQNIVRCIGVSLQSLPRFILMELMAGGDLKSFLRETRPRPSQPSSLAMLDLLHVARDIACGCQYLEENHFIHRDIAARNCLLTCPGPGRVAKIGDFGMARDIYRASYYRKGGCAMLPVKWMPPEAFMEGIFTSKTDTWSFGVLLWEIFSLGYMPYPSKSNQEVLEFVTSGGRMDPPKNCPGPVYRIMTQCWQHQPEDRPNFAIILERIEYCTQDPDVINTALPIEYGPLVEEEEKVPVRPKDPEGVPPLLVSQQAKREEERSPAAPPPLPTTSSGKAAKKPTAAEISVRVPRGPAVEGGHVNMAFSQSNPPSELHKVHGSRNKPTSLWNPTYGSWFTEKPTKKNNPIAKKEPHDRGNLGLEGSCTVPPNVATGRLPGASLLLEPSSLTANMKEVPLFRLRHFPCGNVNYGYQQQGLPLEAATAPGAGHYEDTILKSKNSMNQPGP
From the text: as §1

ALK(C1156Y) = target: T11, ALK(C1156Y) (Homo sapiens, UniProt Q9UM73, C1156Y); assay: scanMAX Kinase analysis panel (DiscoverX); format: binding; conditions: 1 μM in DMSO
T11 construct: purchased DiscoverX
T11 sequence (Q9UM73 19-1620 C1156Y): as the sequence (Q9UM73 19-1620 L1196M) above, with C1138Y, M1178L counted along it
From the text: as §1

JNK1 = target: T12, JNK1 (Homo sapiens, UniProt P45983); assay: scanMAX Kinase analysis panel (DiscoverX); format: binding; conditions: 1 μM in DMSO
T12 construct: purchased DiscoverX
From the text: as §1

ALK = target: T13, ALK (Homo sapiens, UniProt Q9UM73); assay: scanMAX Kinase analysis panel (DiscoverX); format: binding; conditions: 1 μM in DMSO
T13 construct: purchased DiscoverX
T13 sequence (Q9UM73 19-1620): as the sequence (Q9UM73 19-1620 L1196M) above, with M1178L counted along it
From the text: as §1

CHEK2 = target: T14, CHEK2 (Homo sapiens, UniProt O96017); assay: scanMAX Kinase analysis panel (DiscoverX); format: binding; conditions: 1 μM in DMSO
T14 construct: purchased DiscoverX
From the text: as §1

ABL1-nonphosphorylated = target: T15, ABL1-nonphosphorylated (Homo sapiens, UniProt P00519); assay: scanMAX Kinase analysis panel (DiscoverX); format: binding; conditions: 1 μM in DMSO
T15 construct: purchased DiscoverX
From the text: as §1

ERK5 = target: T16, ERK5 (Homo sapiens, UniProt Q13164); assay: scanMAX Kinase analysis panel (DiscoverX); format: binding; conditions: 1 μM in DMSO
T16 construct: purchased DiscoverX scanMAX Kinase analysis panel
T16 sequence (Q13164 whole entry): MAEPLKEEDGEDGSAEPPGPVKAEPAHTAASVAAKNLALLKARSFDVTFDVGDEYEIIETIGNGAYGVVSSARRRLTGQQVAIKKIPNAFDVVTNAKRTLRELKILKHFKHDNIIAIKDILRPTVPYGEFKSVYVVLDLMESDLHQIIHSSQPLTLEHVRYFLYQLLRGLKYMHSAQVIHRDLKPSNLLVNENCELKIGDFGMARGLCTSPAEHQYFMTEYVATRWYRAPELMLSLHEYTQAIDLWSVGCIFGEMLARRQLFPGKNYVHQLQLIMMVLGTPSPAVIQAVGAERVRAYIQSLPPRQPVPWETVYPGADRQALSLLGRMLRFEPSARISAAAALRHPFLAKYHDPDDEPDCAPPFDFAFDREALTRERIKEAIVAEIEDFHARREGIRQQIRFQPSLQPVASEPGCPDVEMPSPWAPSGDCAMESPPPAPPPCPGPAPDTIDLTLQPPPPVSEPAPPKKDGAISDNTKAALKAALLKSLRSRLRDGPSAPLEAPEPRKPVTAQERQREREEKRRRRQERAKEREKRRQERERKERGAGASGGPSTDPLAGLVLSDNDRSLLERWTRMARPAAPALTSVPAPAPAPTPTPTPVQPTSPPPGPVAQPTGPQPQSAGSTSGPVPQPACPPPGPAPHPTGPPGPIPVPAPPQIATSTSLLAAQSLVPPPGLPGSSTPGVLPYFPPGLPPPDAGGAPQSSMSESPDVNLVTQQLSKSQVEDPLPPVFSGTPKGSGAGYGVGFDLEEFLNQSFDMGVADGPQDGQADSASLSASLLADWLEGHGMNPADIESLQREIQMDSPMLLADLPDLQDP
From the text: as §1

STK39 = target: T17, STK39 (Homo sapiens, UniProt Q9UEW8); assay: scanMAX Kinase analysis panel (DiscoverX); format: binding; conditions: 1 μM in DMSO
T17 construct: purchased DiscoverX scanMAX Kinase analysis panel
From the text: as §1

CAL-27 = assay: EGFR expression after treatment, western blot or phosphoarray; format: cell-based; conditions: FIG. 7
Protocol: (§2) For the Ba/F3 EGFR L858R/T790M/C797S cell line, Ba/F3 naive cells purchased from DSMZ were transfected with EGFR L858R/T790M/C797S […] DNA using lipofectamine, and a cell line selected using 1 μg/ml puromycin for 2 weeks was used. Here, the culture medium used was RPMI-1640 with 10% FBS and 1% penicillin streptomycin. The NCI-H2228 and CAL-27 cell lines were purchased from ATCC, and for culturing RPMI-1640 with 10% FBS and 1% penicillin streptomycin was used for NCI-H2228, while for CAL-27 DMEM with 10% FBS and 1% penicillin streptomycin was used.
(§3) As needed, culturing was performed for 1 hour with Cyclohexamine at 30 μg/mL concentration, followed by 15 minutes EGF treatment at a concentration of 100 ng/mL. For the phosphoarray experiment, DYRK1a siRNA was reacted with HEK293T cells for 48 hours at 30 nM concentration, confirming inhibition of DYRK1a expression in the cells. These were used as the control for the main experiment.

[2] = tested on: NCI-H1975 lung cancer cells; assay: Anticancer effect in mouse model with NCI-H1975 lung cancer cells; format: in vivo, Balb/c Nude Mice
Protocol: The NCI-H1975 cell line was purchased from the Institute of Biochemistry and Cell Biology (Shanghai Institutes for Biological Sciences, CAS). Cells were kept in RPMI-1640 containing 10% FBS, and cultured in a 37° C. humidified cell culture incubator at 5% CO2. All animal experiments were carried out according to the Animal Use and Management Guidelines of Shanghai Medicilon Inc. […] Tumor size and animal body weight were measured twice weekly, and clinical symptoms were recorded daily. The mice will be administered individually according to most recent body weight. The tumors were measured using calipers using two measurements, length (a) and width (b). The volume of the tumors was calculated individually as follows, from the two measured diameters of the tumors: tumor volume (mm^3)=(a×b^2)/2.

MC38 colon cancer = assay: Anticancer effect in MC38 colon cancer transplant mouse model; format: in vivo, female C57BL/6 mouse
Protocol: The 3LL cells were cultured in Hams F10:L15=3:7 culture medium, the EMT-6 cells were cultured in Waymouth's MB 752/1 culture medium, and the MC38 cells were cultured in a DMEM culture medium with 10% FBS and 1% penicillin streptomycin, at 37° C. in a 5% CO2 humidified cell culture incubator.
The mouse PD-1 antibody (BE-0146), PD-L1 antibody (BE-0101), and CTLA-4 antibody (BE-0131) were purchased from BioXcell.
All animal tests were carried out through WuXi AppTec.

[3] = tested on: Ba/F3 EGFR L858R/T790M/C797S; assay: EGFR expression after treatment, western blot; format: cell-based; conditions: 0.5, 1.2 and 5 μM, 4 or 24 hours, FIG. 7
Protocol: as §2, §3

T1 sequence (P48729 whole entry): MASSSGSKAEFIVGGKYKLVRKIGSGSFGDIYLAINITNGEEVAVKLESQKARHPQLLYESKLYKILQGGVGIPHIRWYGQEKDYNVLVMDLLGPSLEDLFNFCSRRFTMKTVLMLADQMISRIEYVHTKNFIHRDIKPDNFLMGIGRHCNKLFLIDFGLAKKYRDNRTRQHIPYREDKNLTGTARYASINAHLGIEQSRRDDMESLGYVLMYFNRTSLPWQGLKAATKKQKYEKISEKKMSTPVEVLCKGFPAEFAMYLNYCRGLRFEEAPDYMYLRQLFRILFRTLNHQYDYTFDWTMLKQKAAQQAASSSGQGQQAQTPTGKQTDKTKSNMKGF

**Q.** Which inhibition at 1 µM (CSNK1A1) does the source give for `CCNc1cc(Nc2ccc(C(=O)N3CCC(N4CCOCC4)CC3)cc2OC)nc2[nH]cc(C(F)(F)F)c12` [Compound 1, (4-((4-(ethylamino)-3-(trifluoromethyl)-1H-pyrrolo[2,3-b]pyridine-6-yl)amino)-3-methoxyphenyl) (4-morpholinopiperidine-1-yl)methanone] here?
**A.** 40 to 59%

**Q.** And the inhibition at 1 µM [1]?
**A.** 40 to 59%

**Q.** What about the inhibition at 1 µM (JNK2) of the same compound?
**A.** 40 to 59%

**Q.** And the inhibition at 1 µM (PAK2)?
**A.** ≥ 59%

**Q.** What about the inhibition at 1 µM (CAMK2D) of the same compound?
**A.** 40 to 59%

**Q.** And the inhibition at 1 µM (cSNK1D)?
**A.** ≥ 59%

**Q.** And the inhibition at 1 µM (MAPKAPK2)?
**A.** 40 to 59%

**Q.** And the inhibition at 1 µM (MYLK)?
**A.** ≥ 59%

**Q.** What about the inhibition at 1 µM (LTK) of the same compound?
**A.** ≥ 59%

**Q.** What about the inhibition at 1 µM (ALK (L1196M)) of the same compound?
**A.** ≥ 59%

**Q.** What about the inhibition at 1 µM (ALK(C1156Y)) of the same compound?
**A.** ≥ 59%

**Q.** What about the inhibition at 1 µM (JNK1) of the same compound?
**A.** ≥ 59%

**Q.** What about the inhibition at 1 µM (ALK) of the same compound?
**A.** ≥ 59%

**Q.** What about the inhibition at 1 µM (CHEK2) of the same compound?
**A.** 40 to 59%

**Q.** What about the inhibition at 1 µM (ABL1-nonphosphorylated) of the same compound?
**A.** 40 to 59%

**Q.** And the inhibition at 1 µM (ERK5)?
**A.** 40 to 59%

**Q.** What about the inhibition at 1 µM (STK39) of the same compound?
**A.** 40 to 59%

**Q.** What about the EGFR expression (CAL-27) of the same compound?
**A.** reduced EGFR expression

**Q.** What about the “p-EGFR (Y-1086) expression” value (CAL-27; phosphoarray, 2 μM, 48 hours) of the same compound?
**A.** Reduction in expression

**Q.** What about the anticancer effect ([2]; Compound 1 40 or 60 mg/kg concomitant with Osimertinib 3.5 mg/kg, PO QD, vs Osimertinib alone, FIG. 5) of the same compound?
**A.** substantially reduced lung cancer (NCI-H1975) cells

**Q.** What about the anticancer effect ([2]; singular treatment with Compound 1, 60 mg/kg PO QD) of the same compound?
**A.** no anticancer effect

**Q.** What about the tumor suppression effect (MC38 colon cancer; concomitant with PD-1, PD-L1 and CTLA-4 antibodies 10 mg/kg IP BIW, FIG. 6c) of the same compound?
**A.** improved concomitant effect

**Q.** And the tumor suppression effect (MC38 colon cancer; singular treatment, 45, 60, 75 mg/kg po BID, FIG. 6a)?
**A.** insignificant tumor suppression effect

**Q.** What about the EGFR expression [3] of the same compound?
**A.** reduced EGFR expression
